Structures are written as SMILES.

The text below walks through data of ChEMBL document CHEMBL3638392, “6-1H-imidazo-quinazoline and quinolines derivatives, new MAO inhibitors and imidazoline receptor ligands” (2014).

For the assay, the target named is T1, Amine oxidase [flavin-containing] A (Homo sapiens, UniProt P21397).
T1 sequence (P21397 whole entry): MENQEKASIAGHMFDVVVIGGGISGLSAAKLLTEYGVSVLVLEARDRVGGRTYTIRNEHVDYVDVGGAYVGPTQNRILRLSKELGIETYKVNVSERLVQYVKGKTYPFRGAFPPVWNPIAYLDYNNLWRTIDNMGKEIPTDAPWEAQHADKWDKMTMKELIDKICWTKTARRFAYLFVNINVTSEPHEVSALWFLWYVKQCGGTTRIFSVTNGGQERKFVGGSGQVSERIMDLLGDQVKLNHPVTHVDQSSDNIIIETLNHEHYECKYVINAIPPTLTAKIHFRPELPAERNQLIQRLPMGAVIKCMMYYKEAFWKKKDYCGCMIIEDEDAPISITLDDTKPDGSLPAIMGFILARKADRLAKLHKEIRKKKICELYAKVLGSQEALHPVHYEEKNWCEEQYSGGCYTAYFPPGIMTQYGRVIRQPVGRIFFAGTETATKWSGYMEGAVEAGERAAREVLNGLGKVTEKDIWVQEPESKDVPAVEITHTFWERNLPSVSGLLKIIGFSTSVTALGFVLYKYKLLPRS
Nature of the assay: Activity Assay: Inhibitory activity of compounds was evaluated by a homogeneous luminescent method, the MAO-Glo Assay (Promega), measuring the monoamine oxidase activity (MAOs) from recombinant source (microsomes from baculovirus infected insect cells, Sigma).

With `CS(=O)(=O)c1ccc(-c2ccc3cc(-n4ccnc4)ccc3n2)cc1`, the IC50 worked out at 450 nM.

One may read the IC50 as the concentration that inhibits the measured activity by half.
